Experimental findings from ChEMBL document CHEMBL5154799, “Discovery of a Novel Stilbene Derivative as a Microtubule Targeting Agent Capable of Inducing Cell Ferroptosis” (J Med Chem, 2022) are described below.

What all share (format): functional, cell-based
The subject of assay [1] is A2780. Put plainly: Antiproliferative activity against human A2780 cells assessed as cell viability incubated for 48 hrs by MTT assay. The note with it: A2780, 48 h.
Assay [2] has as its system HeLa. Nature of the assay: Antiproliferative activity against human HeLa cells assessed as cell viability incubated for 48 hrs by MTT assay.
For assay [3], the system named is MCF7. Nature of the assay: Antiproliferative activity against human MCF7 cells assessed as cell viability incubated for 48 hrs by MTT assay. The note with it: MCF7, 48 h.
In assay [4] the test system is HCT-8. Put plainly: Antiproliferative activity against human HCT-8 cells assessed as cell viability incubated for 48 hrs by MTT assay. To be noted: HCT-8, 48 h.
Assay [5] has as its system A549. Nature of the assay: Antiproliferative activity against human A549 cells assessed as cell viability incubated for 48 hrs by MTT assay. The note with it: A549, 48 h.

Structures are written as SMILES.

Consider `C=C(c1cc(OC)c(OC)c(OC)c1)c1ccc(OC)cc1NC(=O)CN`, for which the IC50 in assay [1] stood at 30 nM; in assay [2], 70 nM; in assay [3], 190 nM; in assay [4] it was 60 nM; in assay [5], 40 nM.

On to `COc1ccc(C(=O)c2ccc(OC)c3c2OC(C)(C)C=C3)c(NC(=O)CN)c1`, for which the IC50 in assay [1] is 380 nM; in assay [2], 410 nM; in assay [3], 410 nM; in assay [4], 370 nM; in assay [5], 270 nM.

With `CCNCC(=O)Nc1cc(OC)ccc1C(=O)c1cc(OC)c(OC)c(OC)c1`, the IC50 amounted to 950 nM in assay [1]; 2100 nM in assay [2]; 1050 nM in assay [3]; 1560 nM in assay [4]; 750 nM in assay [5].

On to `COc1ccc(C(=O)c2ccc(OC)c3c2OC(C)(C)C=C3)c(NC(=O)CBr)c1`, for which the IC50 in assay [1] was 980 nM; in assay [2], 2140 nM; in assay [3], 2360 nM; in assay [4] it was 3250 nM; in assay [5] it was 1210 nM.

As for `C=C(c1ccc(OC)cc1NC(=O)CNC)c1ccc(OC)c2c1OC(C)(C)C=C2`, the IC50 in assay [1] was determined as 210 nM; in assay [2], 310 nM; in assay [3] it was 400 nM; in assay [4] it was 320 nM; in assay [5] it was 150 nM.

`C=C(c1cc(OC)c(OC)c(OC)c1)c1ccc(OC)c(O)c1NC(=O)COCC`: the IC50 stood at 1230 nM in assay [1]; 690 nM in assay [2]; 1050 nM in assay [3]; 910 nM in assay [4]; 880 nM in assay [5].

On to `COc1ccc(C(=O)c2ccc3c(c2)C=CC(C)(C)O3)c(NC(=O)CBr)c1`, for which the IC50 in assay [1] was determined as 1870 nM; in assay [2], 3050 nM; in assay [3], 2880 nM; in assay [4] it was 3260 nM; in assay [5], 1980 nM.

Turning to `C=C(c1cc(OC)c(OC)c(OC)c1)c1ccc(OC)cc1NC(=O)CNCC`, the IC50 in assay [1] came out at 450 nM; in assay [2] it was 430 nM; in assay [3], 860 nM; in assay [4] it was 590 nM; in assay [5] it was 260 nM.

Consider `CCNCC(=O)Nc1cc(OC)ccc1C(=O)c1ccc(OC)c2c1OC(C)(C)C=C2`, for which the IC50 in assay [1] came out at 1980 nM; in assay [2], 2690 nM; in assay [3] it was 5200 nM; in assay [4], 3690 nM; in assay [5] it was 1050 nM.

On to `COc1ccc(C(=O)c2cc(OC)c(OC)c(OC)c2)c(NC(=O)CN(C)C)c1`, for which the IC50 in assay [1] came out at 580 nM; in assay [2], 470 nM; in assay [3], 790 nM; in assay [4], 790 nM; in assay [5], 590 nM.

Take `COc1ccc(C(=O)c2ccc3c(c2)C=CC(C)(C)O3)c(NC(=O)CO)c1`: the IC50 turned out to be 130 nM in assay [1]; 240 nM in assay [2]; 200 nM in assay [3]; 250 nM in assay [4]; 90 nM in assay [5].

Turning to `CCNCC(=O)Nc1cc(OC)ccc1C(=O)c1ccc(OC)c2c1C=CC(C)(C)O2`, the IC50 in assay [1] is 4090 nM; in assay [2], 4270 nM; in assay [3], 7230 nM; in assay [4], 7890 nM; in assay [5], 2310 nM.

On to `C=C(c1ccc2c(c1)C=CC(C)(C)O2)c1ccc(OC)cc1NC(=O)CN(C)C`, for which the IC50 in assay [1] stood at 510 nM; in assay [2], 640 nM; in assay [3], 940 nM; in assay [4], 690 nM; in assay [5] it was 430 nM.

As for `COc1ccc(C(=O)c2ccc(OC)c3c2C=CC(C)(C)O3)c(NC(=O)CO)c1`, the IC50 is 420 nM in assay [1]; 310 nM in assay [2]; 940 nM in assay [3]; 630 nM in assay [4]; 100 nM in assay [5].

With `COc1ccc(C(=O)c2ccc3c(c2)C=CC(C)(C)O3)c(NC(=O)CN(C)C)c1`, the IC50 in assay [1] was determined as 1020 nM; in assay [2], 1260 nM; in assay [3], 3560 nM; in assay [4], 2420 nM; in assay [5] it was 1160 nM.

For `C=C(c1ccc(OC)cc1NC(=O)CNCC)c1ccc(OC)c2c1C=CC(C)(C)O2`, the IC50 worked out at 2010 nM in assay [1]; 2590 nM in assay [2]; 2920 nM in assay [3]; 3050 nM in assay [4]; 1870 nM in assay [5].

On to `C=C(c1ccc(OC)cc1NC(=O)CN(C)C)c1ccc(OC)c2c1OC(C)(C)C=C2`, for which the IC50 was 420 nM in assay [1]; 900 nM in assay [2]; 500 nM in assay [3]; 690 nM in assay [4]; 270 nM in assay [5].

Regarding `CNCC(=O)Nc1cc(OC)ccc1C(=O)c1ccc(OC)c2c1OC(C)(C)C=C2`, the IC50 stood at 620 nM in assay [1]; 870 nM in assay [2]; 820 nM in assay [3]; 740 nM in assay [4]; 620 nM in assay [5].

As to `C=C(c1cc(OC)c(OC)c(OC)c1)c1ccc(OC)cc1NC(=O)CNC`, the IC50 was found to be 140 nM in assay [1]; 140 nM in assay [2]; 240 nM in assay [3]; 190 nM in assay [4]; 100 nM in assay [5].

As for `COc1ccc(C(=O)c2ccc(OC)c3c2C=CC(C)(C)O3)c(NC(=O)CN)c1`, the IC50 came out at 890 nM in assay [1]; 100 nM in assay [2]; 1250 nM in assay [3]; 1050 nM in assay [4]; 420 nM in assay [5].

Consider `COc1ccc(C(C)c2cc(OC)c(OC)c(OC)c2)c(NC(=O)CO)c1O` (stereo not given), for which the IC50 in assay [1] turned out to be 280 nM; in assay [2], 390 nM; in assay [3], 790 nM; in assay [4], 590 nM; in assay [5], 180 nM.

`COc1ccc(C(=O)c2ccc(OC)c3c2C=CC(C)(C)O3)c(NC(=O)CN(C)C)c1`: the IC50 turned out to be 3990 nM in assay [1]; 3620 nM in assay [2]; 6530 nM in assay [3]; 5660 nM in assay [4]; 1850 nM in assay [5].

In the case of `C=C(c1ccc(OC)cc1NC(=O)CN(C)C)c1ccc(OC)c2c1C=CC(C)(C)O2`, the IC50 in assay [1] was determined as 670 nM; in assay [2] it was 790 nM; in assay [3] it was 2580 nM; in assay [4] it was 1920 nM; in assay [5], 550 nM.

`C=C(c1cc(OC)c(OC)c(OC)c1)c1ccc(OC)cc1NC(=O)CO`: the concentration for half-maximal inhibition (IC50) in assay [1] stood at 30 nM; in assay [2], 30 nM; in assay [3] it was 110 nM; in assay [4] it was 40 nM; in assay [5], 20 nM.

For `COc1ccc(C(=O)c2ccc3c(c2)C=CC(C)(C)O3)c(NC(=O)CN)c1`, the IC50 in assay [1] came out at 590 nM; in assay [2], 580 nM; in assay [3], 680 nM; in assay [4] it was 490 nM; in assay [5] it was 310 nM.

Consider `C=C(c1ccc2c(c1)C=CC(C)(C)O2)c1ccc(OC)cc1NC(=O)CN`, for which the IC50 in assay [1] was determined as 140 nM; in assay [2] it was 160 nM; in assay [3], 420 nM; in assay [4], 220 nM; in assay [5], 60 nM.

`CNCC(=O)Nc1cc(OC)ccc1C(=O)c1cc(OC)c(OC)c(OC)c1`: the IC50 in assay [1] was 580 nM; in assay [2], 690 nM; in assay [3], 550 nM; in assay [4], 780 nM; in assay [5] it was 610 nM.

With `C=C(c1ccc2c(c1)C=CC(C)(C)O2)c1ccc(OC)cc1NC(=O)CNC`, the IC50 amounted to 320 nM in assay [1]; 410 nM in assay [2]; 720 nM in assay [3]; 590 nM in assay [4]; 200 nM in assay [5].

Turning to `CNCC(=O)Nc1cc(OC)ccc1C(=O)c1ccc(OC)c2c1C=CC(C)(C)O2`, the IC50 in assay [1] was 1590 nM; in assay [2], 2170 nM; in assay [3] it was 3040 nM; in assay [4] it was 3460 nM; in assay [5] it was 1370 nM.

For `C=C(c1cc(OC)c(OC)c(OC)c1)c1ccc(OC)c(O)c1NC(=O)CN(C)C`, the IC50 in assay [1] was 90 nM; in assay [2], 120 nM; in assay [3], 210 nM; in assay [4], 110 nM; in assay [5] it was 50 nM.

Regarding `CNCC(=O)Nc1cc(OC)ccc1C(=O)c1ccc2c(c1)C=CC(C)(C)O2`, the IC50 in assay [1] is 850 nM; in assay [2], 970 nM; in assay [3], 1210 nM; in assay [4], 1010 nM; in assay [5], 800 nM.

Take `COc1ccc(/C=C/C(=O)c2ccc(OC)c3c2OC(C)(C)C=C3)cc1` [MILLEPACHINE]: the IC50 in assay [1] was found to be 3090 nM; in assay [2], 6030 nM; in assay [3] it was 6980 nM; in assay [4], 5020 nM; in assay [5] it was 3950 nM.

As for `C=C(c1ccc2c(c1)C=CC(C)(C)O2)c1ccc(OC)cc1NC(=O)CNCC`, the IC50 in assay [1] came out at 1870 nM; in assay [2], 1580 nM; in assay [3], 3370 nM; in assay [4], 2220 nM; in assay [5] it was 1180 nM.

For the molecule `CCNCC(=O)Nc1cc(OC)ccc1C(=O)c1ccc2c(c1)C=CC(C)(C)O2`, the IC50 in assay [1] came out at 2070 nM; in assay [2], 3110 nM; in assay [3], 6310 nM; in assay [4], 3990 nM; in assay [5], 1300 nM.

Turning to `C=C(c1ccc(OC)cc1NC(=O)CNCC)c1ccc(OC)c2c1OC(C)(C)C=C2`, the IC50 was 1030 nM in assay [1]; 1090 nM in assay [2]; 2100 nM in assay [3]; 1380 nM in assay [4]; 970 nM in assay [5].

Regarding `C=C(c1ccc(OC)cc1NC(=O)CNC)c1ccc(OC)c2c1C=CC(C)(C)O2`, the half-maximal inhibitory concentration (IC50) in assay [1] stood at 720 nM; in assay [2], 500 nM; in assay [3], 1010 nM; in assay [4], 980 nM; in assay [5], 320 nM.

On to `COc1ccc(C(=O)c2cc(OC)c(OC)c(OC)c2)c(NC(=O)CN)c1`, for which the IC50 in assay [1] is 190 nM; in assay [2], 130 nM; in assay [3], 270 nM; in assay [4], 330 nM; in assay [5] it was 220 nM.
